This is an account of results in patent publication US20260356851A1, “TRICYCLIC COMPOUNDS AND USES THEREOF” (HUTCHMED LIMITED, priority 2023, published 2026).

Molecules are shown by their SMILES.

Common to all, as to format: cell-based
The target of test [1] is T1, pERK1/2 (Thr202/Tyr204), NCI-1H358 (KRAS G12C) (Homo sapiens, UniProt P01116, G12C).
T1 construct: pERK1/2 HTRF read-out
The test can be described thus: Assay of intracellular pERK1/2 (Thr202/Tyr204) phosphorylation in NCI-H358 cells (KRAS G12C). The note with it: pERK1/2, 2 days, read-out: NCI-H358 (KRAS G12C) IC50. The essentials: (§1)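 Cells (10000-12000/well) exposed to 3-fold compound dilutions for 2 days at 37 °C, then lysed; pERK1/2 (Thr202/Tyr204) measured by HTRF with d2 and cryptate antibodies, 665/615 nm ratio.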

Test [2] has as its target T2, pERK1/2 (Thr202/Tyr204), PANC-1 (KRAS G121D) (Homo sapiens, UniProt P01116, G12D).
T2 construct: pERK1/2 HTRF read-out
The test can be described thus: Assay of intracellular pERK1/2 (Thr202/Tyr204) phosphorylation in PANC-1 cells (KRAS G12D). The note with it: pERK1/2, 2 days, read-out: PANC-1 (KRAS G12D) IC50. The essentials: as §1

Test [3] addresses T3, pERK1/2 (Thr202/Tyr204), NCI-1H441 (KRAS G12V) (Homo sapiens, UniProt P01116, G12V).
T3 construct: pERK1/2 HTRF read-out
The test can be described thus: Assay of intracellular pERK1/2 (Thr202/Tyr204) phosphorylation in NCI-H441 cells (KRAS G12V). The conditions noted are these: pERK1/2, 2 days, read-out: NCI-H441 (KRAS G12V) IC50. The essentials:
as §1

T3 sequence (P01116 1-188 isoform P01116-2 G12V): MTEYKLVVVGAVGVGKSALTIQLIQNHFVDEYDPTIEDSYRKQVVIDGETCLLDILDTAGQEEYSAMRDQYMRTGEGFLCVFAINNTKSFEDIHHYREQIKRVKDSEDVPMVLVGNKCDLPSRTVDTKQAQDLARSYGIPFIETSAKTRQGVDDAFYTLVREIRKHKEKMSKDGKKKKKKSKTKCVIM
T2 sequence (P01116 1-188 isoform P01116-2 G12D): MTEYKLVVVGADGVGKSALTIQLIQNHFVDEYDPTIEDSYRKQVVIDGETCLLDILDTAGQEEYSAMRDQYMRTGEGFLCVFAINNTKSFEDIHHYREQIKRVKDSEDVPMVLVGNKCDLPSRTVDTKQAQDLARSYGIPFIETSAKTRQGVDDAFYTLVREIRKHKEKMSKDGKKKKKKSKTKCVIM
T1 sequence (P01116 1-188 isoform P01116-2 G12C): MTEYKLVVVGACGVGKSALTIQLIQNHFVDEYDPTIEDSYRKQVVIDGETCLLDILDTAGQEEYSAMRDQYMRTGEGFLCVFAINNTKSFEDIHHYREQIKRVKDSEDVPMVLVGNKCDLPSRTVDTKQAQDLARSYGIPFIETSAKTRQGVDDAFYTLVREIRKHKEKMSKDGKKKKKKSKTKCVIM

For `Cc1c(F)c(N)cc(-c2nc3c4c(nc(OC[C@]56CCCN5C[C@@H](F)C6)nc4c2F)N(C(C)c2cccnc2N)CCO3)c1C(F)(F)F` (stereo partly drawn) [Compound 163], the IC50 in test [1] is 0.2 nM; in test [2], 6 nM; in test [3], 0.4 nM.
The matching figures for `Cc1c(F)c(N)cc(-c2nc3c4c(nc(OC[C@]56CCCN5C[C@H](F)C6)nc4c2F)N(C(C)c2cccnc2N)CCO3)c1C(F)(F)F` (stereo partly drawn) [Compound 164]: 0.2 nM, 3 nM and 0.3 nM.
The matching figures for `Cc1c(F)c(N)cc(-c2nc3c4c(nc(OC[C@@]56CCCN5C[C@@H](F)C6)nc4c2F)N(C(C)c2cccnc2N)CCO3)c1C(F)(F)F` (stereo partly drawn) [Compound 165]: 1 nM, 47 nM and 3 nM.
Consider `CC(c1cccnc1N)N1CCOc2nc(-c3cc(N)c(F)c(Cl)c3C(F)(F)F)c(F)c3nc(OC[C@@]45CCCN4C[C@H](F)C5)nc1c23` (stereo partly drawn) [Compound 168], for which the IC50 turned out to be 0.2 nM in test [1], 2 nM in test [2] and 0.4 nM in test [3].
Regarding `Cc1c(F)c(N)cc(-c2nc3c4c(nc(OC[C@@]56CCCN5CC(F)(F)C6)nc4c2F)N(C(C)c2cccnc2N)CCO3)c1C(F)(F)F` (stereo partly drawn) [Compound 171], the IC50 in test [1] was determined as 0.5 nM; in test [2], 27 nM; in test [3], 2 nM.
The matching figures for `Cc1cc(N)cc(-c2nc3c4c(nc(OC[C@@]56CCCN5C[C@H](F)C6)nc4c2F)N(C(C)c2cc(F)cnc2N)CCO3)c1C(F)(F)F` (stereo partly drawn) [Compound 173]: 0.5 nM, 7 nM and 0.8 nM.
On to `Cc1c(F)c(N)cc(-c2nc3c4c(nc(OC[C@@]56CCCN5C[C@H](F)C6)nc4c2F)N(C(C)c2cc(F)cnc2N)CCO3)c1C(F)(F)F` (stereo partly drawn) [Compound 177], for which the results for the IC50 in test [1], in test [2] and in test [3] were 0.7 nM, 11 nM and 2 nM, respectively.
The matching figures for `Cc1c(F)c(N)cc(-c2nc3c4c(nc(OC[C@@]56CCCN5C[C@H](F)C6)nc4c2F)N(Cc2cccnc2N)CCO3)c1C(F)(F)F` [Compound 180]: 1 nM, 35 nM and 6 nM.
On the same counts, the results for `Cc1cc(N)cc(-c2nc3c4c(nc(OC[C@@]56CCCN5C[C@H](F)C6)nc4c2F)N(C(C)c2cccnc2N)C2(CC2)CO3)c1C(F)(F)F` (stereo partly drawn) [Compound 181] are more than 100 nM, more than 100 nM and more than 100 nM.
With `Cc1c(F)c(N)cc(-c2nc3c4c(nc(OC[C@@H]5C[C@@H](F)CN5C)nc4c2F)N(C(C)c2cccnc2N)CCO3)c1C(F)(F)F` (stereo partly drawn) [Compound 185], the values for the IC50 in test [1], in test [2] and in test [3] were 0.3 nM, 13 nM and 1 nM, respectively.
With `Cc1c(F)c(N)cc(-c2nc3c4c(nc(OC[C@@]56CCCN5C[C@H](F)C6)nc4c2F)N(C2(c4cccnc4N)CC2)CCO3)c1C(F)(F)F` [Compound 187], the results for the IC50 in test [1], in test [2] and in test [3] were 63 nM, more than 100 nM and 44 nM, respectively.
With `Cc1c(F)c(N)cc(-c2nc3c4c(nc(OC[C@@]56CCC(=O)N5C[C@H](F)C6)nc4c2F)N(C(C)c2cccnc2N)CCO3)c1C(F)(F)F` (stereo partly drawn) [Compound 195], the IC50 is 33 nM in test [1], more than 100 nM in test [2] and 99 nM in test [3].
Take `Cc1c(F)c(N)cc(-c2nc3c4c(nc(OC[C@@]56CCCN5C[C@H](F)C6)nc4c2F)N(C2CC2)CCO3)c1C(F)(F)F` [Compound 196]: the IC50 in test [1], in test [2] and in test [3] was more than 100 nM in each case.
For the molecule `C#Cc1c(F)ccc2cc(O)cc(-c3nc4c5c(nc(OC[C@@]67CCCN6C[C@H](F)C7)nc5c3F)N(C3CC3)CCO4)c12` [Compound 197], the IC50 in test [1], in test [2] and in test [3] was more than 100 nM in each case.
Turning to `Cc1c(F)c(N)cc(-c2nc3c4c(nc(OC[C@@]56CCCN5C[C@H](F)C6)nc4c2F)N(C2CCNC2)CCO3)c1C(F)(F)F` (stereo partly drawn) [Compound 198], the IC50 in test [1], in test [2] and in test [3] was more than 100 nM each time.
For `Cc1c(F)c(N)cc(-c2nc3c4c(nc(OC[C@@]56CCCN5C[C@H](F)C6)nc4c2F)N(C(C)c2cccnc2N)CCO3)c1Cl` (stereo partly drawn) [Compound 204], the IC50 was found to be 1 nM in test [1], 49 nM in test [2] and 4 nM in test [3].
`CC(c1cccnc1N)N1CCOc2nc(-c3cc(N)c(F)c(Cl)c3C(F)(F)F)c(F)c3nc(OC[C@@H]4C[C@@H](F)CN4C)nc1c23` (stereo partly drawn) [Compound 205]: the figures for the 50% inhibitory concentration (IC50) in test [1], in test [2] and in test [3] were 0.3 nM, 11 nM and 1 nM, respectively.
As for `Cc1c(F)c(N)cc(-c2nc3c4c(nc(OCC56CCCN5CC5(CC5)C6)nc4c2F)N(C(C)c2cccnc2N)CCO3)c1C(F)(F)F` (stereo not drawn) [Compound 218], the IC50 in test [1] turned out to be 0.5 nM; in test [2] it was 4 nM; in test [3], 1 nM.
Regarding `[2H]C1([2H])CC[C@@]2(COc3nc4c5c(nc(-c6cc(N)c(F)c(Cl)c6C(F)(F)F)c(F)c5n3)OCCN4C(C)c3cccnc3N)C[C@@H](F)CN12` (stereo partly drawn) [Compound 221], the IC50 is 0.1 nM in test [1], 2 nM in test [2] and 0.4 nM in test [3].
For the molecule `[2H]C1([2H])CC[C@@]2(COc3nc4c5c(nc(-c6cc(N)c(F)c(Cl)c6C(F)(F)F)c(F)c5n3)OC([2H])([2H])C([2H])([2H])N4C(C)c3ccc[n+]([O-])c3N)C[C@@H](F)CN12` (stereo partly drawn) [Compound 224], the IC50 in test [1], in test [2] and in test [3] was more than 100 nM in each case.
Take `Cc1cc(N)cc(-c2nc3c4c(nc(OC[C@@]56CCCN5C/C(=C\F)C6)nc4c2F)N(C(C)c2cccnc2N)CCO3)c1C(F)(F)F` (stereo partly drawn) [Compound 225]: the IC50 was 0.2 nM in test [1], 0.5 nM in test [2] and 0.5 nM in test [3].
As to `Cc1c(F)c(N)cc(-c2nc3c4c(nc(OC[C@@]56CCCN5C[C@H](F)C6)nc4c2F)N(C(C)c2ccc[n+]([O-])c2N)CCO3)c1C(F)(F)F` (stereo partly drawn) [Compound 226], the IC50 was 43 nM in test [1], more than 100 nM in test [2] and more than 100 nM in test [3].
As to `CC(c1cccnc1N)N1CCOc2nc(-c3cc(N)c(F)c(Cl)c3C(F)(F)F)c(F)c3nc(OC[C@@]45CCCN4C/C(=C\F)C5)nc1c23` (stereo partly drawn) [Compound 229], the IC50 was determined as 0.1 nM in test [1], 0.5 nM in test [2] and 0.5 nM in test [3].
`Cc1c(F)c(N)cc(-c2nc3c4c(nc(OC[C@@]56CCCN5C/C(=C\F)C6)nc4c2F)N(C(C)c2cccnc2N)CCO3)c1C(F)(F)F` (stereo partly drawn) [Compound 230]: the IC50 in test [1] is 0.1 nM; in test [2] it was 1 nM; in test [3] it was 0.5 nM.
Turning to `[2H]C1([2H])CC[C@@]2(COc3nc4c5c(nc(-c6cc(N)cc(C)c6C(F)(F)F)c(F)c5n3)OCCN4C(C)c3cccnc3N)C[C@@H](F)CN12` (stereo partly drawn) [Compound 231], the IC50 in test [1] came to 0.2 nM; in test [2], 0.8 nM; in test [3] it was 0.2 nM.
Turning to `CC(c1cccnc1N)N1CCOc2nc(-c3cc(N)c(F)c(Cl)c3C3CC3)c(F)c3nc(OC[C@@]45CCCN4C[C@H](F)C5)nc1c23` (stereo partly drawn) [Compound 232], the IC50 worked out at 0.2 nM in test [1], 5 nM in test [2] and 0.9 nM in test [3].
Turning to `CC(c1cccnc1N)N1CCOc2nc(-c3cc(N)c(F)c(Cl)c3Cl)c(F)c3nc(OC[C@@]45CCCN4C[C@H](F)C5)nc1c23` (stereo partly drawn) [Compound 233], the IC50 in test [1] turned out to be 1 nM; in test [2], 32 nM; in test [3] it was 3 nM.
Take `Cc1cc(N)cc(-c2nc3c4c(nc(OC[C@@]56CCCN5CC5(CC5(F)F)C6)nc4c2F)N(C(C)c2cccnc2N)CCO3)c1C(F)(F)F` (stereo partly drawn) [Compound 237]: the results for the IC50 in test [1], in test [2] and in test [3] were 0.3 nM, 1 nM and 0.4 nM, respectively.
Consider `Cc1c(F)c(N)cc(-c2nc3c4c(nc(OC[C@@]56CCCN5CC(=C(F)F)C6)nc4c2F)N(C(C)c2cccnc2N)CCO3)c1C(F)(F)F` (stereo partly drawn) [Compound 243], for which the IC50 in test [1] came to 0.2 nM; in test [2], 1 nM; in test [3], 0.5 nM.
Regarding `C#Cc1c(F)ccc2cc(O)cc(-c3nc4c5c(nc(OC[C@@]67CCCN6C[C@H](F)C7)nc5c3F)N(C(C)c3cccnc3N)CCO4)c12` (stereo partly drawn) [Compound 259], the IC50 in test [1] was 0.9 nM; in test [2] it was 1 nM; in test [3], 1 nM.
In the case of `Cc1cc(N)cc(-c2nc3c4c(nc(OC[C@@]56CCCN5C[C@H](F)C6)nc4c2F)N(C(C)c2cccnc2N)[C@@H](C)CO3)c1C(F)(F)F` (stereo partly drawn) [Compound 262], the IC50 in test [1] was determined as 28 nM; in test [2], 40 nM; in test [3], 47 nM.
As for `CC(=O)Nc1ncccc1C(C)N1CCOc2nc(-c3cc(N)c(F)c(C)c3C(F)(F)F)c(F)c3nc(OC[C@@]45CCCN4C[C@H](F)C5)nc1c23` (stereo partly drawn) [Compound 266], the figures for the IC50 in test [1], in test [2] and in test [3] were 95 nM, more than 100 nM and more than 100 nM, respectively.
For the molecule `CC(c1cccnc1N)N1c2nc(OC[C@@]34CCCN3C[C@H](F)C4)nc3c(F)c(-c4cc(O)cc(Cl)c4C4CC4)nc(c23)OC[C@@H]1C` (stereo partly drawn) [Compound 268], the IC50 in test [1] was determined as 0.2 nM; in test [2], 0.4 nM; in test [3] it was 0.5 nM.
As for `CC(c1cccnc1N)N1c2nc(OC[C@@H]3C[C@@H](F)CN3C)nc3c(F)c(-c4cc(O)cc5ccc(F)c(F)c45)nc(c23)OC[C@@H]1C` (stereo partly drawn) [Compound 281], the IC50 in test [1] was 0.2 nM; in test [2], 1 nM; in test [3], 0.5 nM.
